From ChEMBL document CHEMBL1201862, “PubChem BioAssay data set” (2004) come the findings set out here.

Test systems include M14; SK-OV-3; IGROV-1; HOP-18; CAKI-1; SF-268; RXF 393; HT-29; SF-295; OVCAR-4; OVCAR-8; Malme-3M; SF-539; K562; SNB-75; A549; HOP-92; HL-60.
What all share (test): NCI anticancer screen, dose series, 48 h

SMILES strings stand for the structures.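 Cultured in 96-well plates, cells were exposed to test compound for 48 hours across five concentrations. The concentration for 50% growth inhibition is given as GI50.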 Activity calls are given as the source filed them. Cut-off read from the data, not from the text of the source: active = GI50 up to about 1.1 µM and inactive = higher.

In the case of `CC(=O)Nc1ccc(/C=C(\NC(=O)c2ccccc2)c2nc3ccc4c(c3[nH]2)C(=O)c2ccccc2C4=O)cc1`, the GI50 in the assay on M14 was 43.1 µM (inactive); in the assay with SK-OV-3, 72.4 µM (inactive); with IGROV-1, 7.13 µM (inactive); with HOP-18, 11 µM (inactive); with CAKI-1, 5.02 µM (inactive); in the assay on SF-268, 5.94 µM (inactive). Besides, the GI50 is 4.66 µM (inactive) with RXF 393; 45.6 µM (inactive) in the assay on HT-29; 22.6 µM (inactive) in the assay with SF-295; 56.8 µM (inactive) in the assay with OVCAR-4; 22.1 µM (inactive) with OVCAR-8; > 100 µM (inactive) in the assay with Malme-3M. The GI50 with SF-539 was 17.5 µM (inactive); with K562, 19.9 µM (inactive); in the assay on SNB-75 it was 9.51 µM (inactive); with A549, 12.5 µM (inactive); in the assay on HOP-92 it was 22.9 µM (inactive).
Turning to `CCOC(=O)C1Cc2c(ccc(OC)c2OC)C(=O)C1N` (stereo unspecified), the GI50 with M14 was > 100 µM (inactive); with SK-OV-3 it was > 100 µM (inactive); in the assay with IGROV-1 it was > 100 µM (inactive); with HOP-18, 97.5 µM (inactive); in the assay with CAKI-1 it was > 100 µM (inactive); in the assay with RXF 393, > 100 µM (inactive). In addition, the GI50 in the assay with HL-60 was > 100 µM (inactive); in the assay on HT-29 it was > 100 µM (inactive); with SF-295, > 100 µM (inactive); in the assay with OVCAR-4, 82.2 µM (inactive); in the assay with OVCAR-8, > 100 µM (inactive); with Malme-3M, > 100 µM (inactive). The GI50 with SF-539, with K562, in the assay on SNB-75, in the assay on A549 and in the assay with HOP-92 was > 100 µM (inactive) throughout.
For `N#Cc1c(-c2ccccc2)cc(-c2cccs2)c(C#N)c1N`, the GI50 in the assay on M14 was > 100 µM (inactive); in the assay with SK-OV-3, > 10 µM (inactive); in the assay with IGROV-1 it was > 10 µM (inactive); in the assay with HOP-18 it was 0.0134 µM (active); in the assay with CAKI-1 it was > 100 µM (inactive); in the assay with SF-268 it was > 100 µM (inactive). In addition, the GI50 in the assay on HL-60, in the assay on HT-29, in the assay on SF-295, with OVCAR-4, with OVCAR-8 and in the assay on Malme-3M was > 100 µM (inactive) each time. Moreover, the GI50 in the assay with SF-539 is > 100 µM (inactive); with K562, > 100 µM (inactive); with SNB-75 it was 12.2 µM (inactive); in the assay with A549, > 100 µM (inactive); in the assay on HOP-92, > 100 µM (inactive).
Consider `CCc1ccccc1NC(=O)C(=O)C1C(=O)N(c2ccccc2)N=C1N` (stereo unspecified), for which the GI50 in the assay with M14, with IGROV-1, in the assay on HOP-18, with CAKI-1, in the assay on SF-268 and in the assay on RXF 393 was > 100 µM (inactive) throughout. Also, the GI50 in the assay on HL-60 was 72.4 µM (inactive); in the assay with HT-29, > 100 µM (inactive); in the assay on SF-295 it was > 100 µM (inactive); in the assay with OVCAR-4, > 100 µM (inactive); in the assay with OVCAR-8, > 100 µM (inactive); in the assay with Malme-3M, > 100 µM (inactive). For the same molecule, the GI50 in the assay with SF-539, in the assay with K562, in the assay on SNB-75, with A549 and in the assay on HOP-92 was > 100 µM (inactive) throughout.
Take `O=C1CC2C=CC1C2CO` (stereo unspecified): the GI50 in the assay with M14, in the assay on SK-OV-3, with IGROV-1, in the assay on HOP-18, with CAKI-1 and with SF-268 was > 100 µM (inactive) each time. Also, the GI50 in the assay with RXF 393, in the assay with HL-60, in the assay on HT-29, in the assay with SF-295, with OVCAR-4 and with OVCAR-8 was > 100 µM (inactive) in each case. Besides, the GI50 in the assay with Malme-3M, in the assay on SF-539, with SNB-75, with A549 and with HOP-92 was > 100 µM (inactive) in each case.
For the molecule `COC(=O)CCC(=O)N1C/C(=C\c2ccccc2)C(=O)/C(=C/c2ccccc2)C1`, the GI50 was 1.98 µM (inactive) in the assay on M14; 4.16 µM (inactive) in the assay with SK-OV-3; 1.79 µM (inactive) in the assay with IGROV-1; 2.34 µM (inactive) with HOP-18; 1.75 µM (inactive) in the assay on CAKI-1; 2.28 µM (inactive) with SF-268. Further, the GI50 was 2.06 µM (inactive) with RXF 393; 1.72 µM (inactive) in the assay on HT-29; 2.31 µM (inactive) in the assay with SF-295; 2.03 µM (inactive) in the assay on OVCAR-4; 3.1 µM (inactive) with OVCAR-8; 2.34 µM (inactive) in the assay with Malme-3M. Further, the GI50 with SF-539 was 2.94 µM (inactive); in the assay on K562, 1.43 µM (inactive); in the assay on SNB-75 it was 2.29 µM (inactive); in the assay with A549, 3.64 µM (inactive); with HOP-92, 6.03 µM (inactive).
For `COc1ccc(NC(=O)CSc2nnc(-c3ccc(NC(C)=O)cc3)o2)cc1`, the GI50 is 17 µM (inactive) with M14; 44.1 µM (inactive) in the assay on SK-OV-3; 15.5 µM (inactive) in the assay with IGROV-1; 19.9 µM (inactive) in the assay on HOP-18; 15.8 µM (inactive) with SF-268; 14.5 µM (inactive) with RXF 393. Moreover, the GI50 is 21.9 µM (inactive) in the assay on HL-60; 11.1 µM (inactive) with HT-29; 15.3 µM (inactive) in the assay on SF-295; 15.7 µM (inactive) with OVCAR-4; 20.7 µM (inactive) in the assay with OVCAR-8; 20.6 µM (inactive) in the assay with Malme-3M. Moreover, the GI50 is > 10 µM (inactive) in the assay on SF-539, 21.4 µM (inactive) in the assay with K562, 63.1 µM (inactive) with SNB-75 and 20.9 µM (inactive) with A549.
`CC(=O)OCCOCNC(=S)N/N=C(\C)c1cccs1`: the GI50 with M14, in the assay with SK-OV-3, in the assay with IGROV-1, with HOP-18, with SF-268 and in the assay on RXF 393 was > 100 µM (inactive) in each case. Further, the GI50 in the assay on HL-60, with HT-29, in the assay with SF-295, with OVCAR-4, in the assay on OVCAR-8 and with Malme-3M was > 100 µM (inactive) throughout. Moreover, the GI50 in the assay on SF-539, in the assay with K562, in the assay on SNB-75 and in the assay with A549 was > 100 µM (inactive) throughout.
`CC(=O)NC(CCCCNC(=O)N(CCCl)N=O)C(=O)NCc1ccccc1` (stereo unspecified): the GI50 with M14 was > 100 µM (inactive); in the assay with IGROV-1, 51.8 µM (inactive); with HOP-18 it was > 100 µM (inactive); in the assay on CAKI-1, > 100 µM (inactive); in the assay with SF-268, 17.9 µM (inactive); with HL-60, > 100 µM (inactive). Further, the GI50 was > 100 µM (inactive) in the assay on HT-29; 55.2 µM (inactive) in the assay on SF-295; > 100 µM (inactive) in the assay on OVCAR-4; > 100 µM (inactive) in the assay with OVCAR-8; > 100 µM (inactive) in the assay with Malme-3M; 29 µM (inactive) in the assay on SF-539. The GI50 in the assay on K562 is > 100 µM (inactive); in the assay with SNB-75, 27.2 µM (inactive); in the assay with A549 it was > 100 µM (inactive); in the assay with HOP-92, > 100 µM (inactive).
`CC(=O)CN(Cc1cc(C)c2c(c1)c1ccccc1n2Cc1ccccc1)S(=O)(=O)c1ccc(C)cc1`: the GI50 with M14, in the assay with SK-OV-3, with IGROV-1, in the assay with HOP-18, with CAKI-1 and in the assay with SF-268 was > 100 µM (inactive) in each case. The GI50 with HL-60, in the assay with HT-29, in the assay with SF-295, in the assay on OVCAR-4, in the assay on OVCAR-8 and in the assay with Malme-3M was > 100 µM (inactive) each time. The GI50 in the assay on SF-539, in the assay on K562, in the assay on SNB-75, with A549 and in the assay with HOP-92 was > 100 µM (inactive) throughout.
Take `O=C(CNC(=O)OCc1ccccc1)Oc1ccccc1`: the GI50 in the assay on M14, in the assay on SK-OV-3, in the assay on IGROV-1, in the assay with HOP-18, with SF-268 and with RXF 393 was > 100 µM (inactive) throughout. The GI50 in the assay on HL-60, with HT-29, in the assay on SF-295, in the assay with OVCAR-4, in the assay with OVCAR-8 and with Malme-3M was > 100 µM (inactive) in each case. Moreover, the GI50 with SF-539, in the assay on K562, with SNB-75, in the assay with A549 and in the assay with HOP-92 was > 100 µM (inactive) each time.
Take `COc1ccccc1CCc1cc(OC)c(OC)c(OC)c1`: the GI50 was 47.6 µM (inactive) in the assay on M14; 49.9 µM (inactive) in the assay with IGROV-1; > 100 µM (inactive) with HOP-18; 57.8 µM (inactive) in the assay with CAKI-1; 65.9 µM (inactive) in the assay with SF-268; 20.9 µM (inactive) in the assay with RXF 393. For the same molecule, the GI50 with HL-60 is 11 µM (inactive); in the assay with HT-29 it was 41.5 µM (inactive); in the assay with SF-295 it was 51.4 µM (inactive); with OVCAR-4 it was 40.6 µM (inactive); in the assay on OVCAR-8, 45.9 µM (inactive); in the assay with Malme-3M, 49.5 µM (inactive). For the same molecule, the GI50 in the assay with SF-539 is 65.3 µM (inactive); with K562, 33 µM (inactive); in the assay with SNB-75, 41.6 µM (inactive); in the assay on A549, 41.1 µM (inactive); in the assay with HOP-92, 26.8 µM (inactive).
